Measurements published in publication PMC6095874, “Discovery of cationic nonribosomal peptides as Gram-negative antibiotics through global genome mining” (Nature Communications, 2018).
≈ marks a conversion by molar mass, not a printed value. Like-named read-outs stand apart in the source and are kept apart here. Where a SMILES comes first, the peptide text is derived from it. Bridges are numbered along the chain shown (N, C = ends). [ ]: non-standard residue; d: D form. The star is where a group is joined. ξ: configuration not given here. Hexanoyl(4ξ-Me) = CCC(C)CCC(=O)*; dOrn = NCCC[C@@H](N)C(=O)O; Orn = NCCC[C@H](N)C(=O)O

Key:
[1] = tested on: K. pneumoniae NRRL-B-3521; format: cell-based, Klebsiella pneumoniae; details: NRRL-B-3521, 24 h
Procedure: (§1) MIC was determined by broth microdilution according to CLSI guidelines. The test medium for most species was Mueller–Hinton broth (MHB). Bacteria were grown overnight to early stationary phase and adjusted in MHB to 5.0 × 10^5 c.f.u. mL^−1 in the wells of 96-well microtiter plates (Falcon® 96-Well Flat-Bottom Microplate, Tissue Culture-Treated), mixed with varying concentrations of test compounds and incubated at 37 °C for 24 h. Cell growth was evaluated by measuring the optical density at 595 nm (Thermo Scientific Multiskan FC multiplate photometer) (Waltham, MA, USA), and the MIC was defined as the lowest compound concentration at which no bacterial growth was observed. MHBs containing 10% fetal bovine serum (Gibco), 21 mM MgCl, or 1.0 mg mL^−1 LPS (lipopolysaccharides from E. coli O55:B5, Sigma-Aldrich) was used to test their inhibitory effects.

[2] = tested on: Enterobacter cloacae NRRL-B-413; assay: MIC by broth microdilution; format: cell-based; details: Supplementary Table 1; En = Enterobacter cloacae NRRL-B-413
Procedure: as §1

Acinetobacter baumannii = assay: MIC by broth microdilution; format: cell-based; details: Supplementary Table 1
Procedure: as §1

[3] = tested on: Klebsiella pneumoniae NRRL-B-408; assay: MIC by broth microdilution; format: cell-based; details: Supplementary Table 1; Kp = Klebsiella pneumoniae NRRL-B-408
Procedure: as §1

Bacillus subtilis 168 = assay: MIC by broth microdilution; format: cell-based; details: Supplementary Table 1; Bs = B. subtilis 168
Procedure: as §1

Candida albicans = format: cell-based; details: 24 h
E. coli TOP10 cells = assay: Time-kill assay; format: cell-based, Escherichia coli
Procedure: An overnight culture of E. coli TOP10 cells was diluted 1:10,000 in MHB and incubated at 37 °C with agitation at 180 rpm for 2 h (early exponential). The bacteria were then challenged with brevicidine (20 μg mL^−1), laterocidine (20 μg mL^−1), or polymyxin B (10 μg mL^−1) at ten times the MIC at room temperature without shaking. An untreated sample of cells was used as a negative control. At intervals, 10 μL aliquots were removed, centrifuged at 10,000 × g for 1 min and resuspended in 1.0 mL of sterile PBS. Tenfold serially diluted suspensions were plated on MHB agar plates and incubated at 37 °C overnight. Colonies were counted and the number of c.f.u. per mL was calculated. For analysis of lysis, 300 μL of culture (OD600 = 1.0) were treated with antibiotics at ten times the MIC for 24 h. Experiments were performed in triplicate.

Gram-negative bacteria = format: cell-based
Procedure: as §1

[4] = tested on: Staphylococcus aureus (MRSA); format: cell-based; details: 24 h
Procedure: as §1

[5] = tested on: Pseudomonas aeruginosa PAO1; format: cell-based; details: Supplementary Table 1; Pa = Pseudomonas aeruginosa PAO1
Procedure: as §1

E. coli ATCC 25922 = assay: Neutropenic mouse thigh infection model; format: in vivo
Procedure: Given the low risk of resistance and the attractive mode of action of 1–2, an animal efficacy study was then performed in a mouse thigh model. Mice were intramuscularly infected with 1.50 × 10^6 c.f.u. of E. coli ATCC 25922. Two hours post infection, brevicidine (30 mg kg^−1) or laterocidine (15 mg kg^−1) was subcutaneously injected at two doses. […] In particular, compound 1 was highly efficacious in mice infected with E. coli and caused a 5 log10 reduction in c.f.u. in the thigh compared to the vehicle control after 24 h (Fig. 4f).
In vivo activities of brevicidine and laterocidine were tested using the mouse thigh infection model. Animal studies were performed by Pharmacology Discovery Services Taiwan Ltd. in general accordance with standard guidelines on animal welfare[38] in an AAALAC-accredited facility. The protocol was reviewed and approved by the Institutional Animal Care and Use Committee. Groups of five female-specific pathogen-free ICR (CD-1) mice weighing 22 ± 2 g (~5 weeks of age) were used. Animals were immunosuppressed with two intraperitoneal injections of cyclophosphamide, the first at 150 mg kg^−1 4 days before infection (day −4) and the second at 100 mg kg^−1 1 day before infection (day −1). On day 0, animals were inoculated intramuscularly (0.1 mL per thigh) in the right thigh with an E. coli ATCC 25922 suspension. Vehicle (10% DMSO, 1% Tween 80, 0.9% NaCl) and antibiotics were then subcutaneously injected 2 and 8 h later. Due to the limited availability of compounds 1–2, only one concentration of 1 (30 mg kg^−1) or 2 (15 mg kg^−1) was used in the present study. Precisely 26 h after inoculation, animals were euthanized by CO2 asphyxiation before their right thigh muscles were harvested. The removed muscles were homogenized in 5 mL of PBS, pH 7.4, with a Polytron homogenizer. Homogenates in the amount of 0.1 mL were used for serial tenfold dilutions and plated onto a nutrient agar medium for colony count (in c.f.u. g^−1) determination. No randomization or blinding was necessary for the animal infection models, and no samples were excluded.

[6] = tested on: Escherichia coli ATCC 25922; assay: microbe, parasite or virus in culture; format: cell-based; details: Supplementary Table 1; Ec = Escherichia coli ATCC 25922
Procedure: as §1

E. cloacae NRRL-B-425 = format: cell-based, Enterobacter cloacae; details: NRRL-B-425, 24 h
Procedure: as §1

[7] = Peptide binding to LPS by isothermal titration calorimetry; parameters: species or system Escherichia coli; details: 37 °C
Procedure: Microcalorimetric experiments of peptide binding to LPS were performed on an MCS isothermal titration calorimeter (Microcal, Northampton, MA) at 37 °C. LPS was prepared as a 50 µM aqueous suspension in 20 mM HEPES buffer (pH 7.0) by suspension, sonication, and temperature cycling between 5 and 70 °C. This suspension was stored at 4 °C overnight prior to use. Aliquots of 100 µM peptide solutions (brevicidine and polymyxin B) were prepared in the same buffer and all solutions were degassed prior to use by stirring under vacuum for 5 min at 37 °C. After thermal equilibration, 5 µL aliquots of the peptide solution were added every 3 min into the lipid-containing cell at 37 °C with constant stirring. The change in heat during the titration steps was registered in real time and raw data were processed using the Origin® 7 software provided with the instrument. In control experiments, the corresponding peptide solution (or LPS solution) was injected into the buffer without LPS (or without peptide).

CCC(C)CCC(=O)N[C@H](CC(N)=O)C(=O)N[C@H](Cc1ccc(O)cc1)C(=O)N[C@H](Cc1c[nH]c2ccccc12)C(=O)N[C@H](CCCN)C(=O)N[C@@H](CCCN)C(=O)NCC(=O)N[C@H](CCCN)C(=O)N[C@@H](Cc1c[nH]c2ccccc12)C(=O)N[C@@H]1C(=O)N[C@@H]([C@@H](C)CC)C(=O)NCC(=O)N[C@@H](CO)C(=O)O[C@@H]1C (stereo partly drawn) [Compound 1, brevicidine] ({Hexanoyl(4ξ-Me)}-[dN][dY][dW][dOrn][Orn]G[dOrn]WTIGS; ester 9-C)
MIC [1]: 4 µg/mL (≈ 2.63 µM) | MIC, En [2]: 2 µg/mL (≈ 1.32 µM) | MIC, Ab (Acinetobacter baumannii): 16 µg/mL (≈ 10.5 µM) | MIC, Kp [3]: 2 µg/mL (≈ 1.32 µM) | MIC, Bs (Bacillus subtilis 168): 32 µg/mL (≈ 21.1 µM) | MIC (Candida albicans): >64 µg/mL | bactericidal action against E. coli (E. coli TOP10 cells; as revealed by growth kinetics, time-kill assay and lysis assay): bactericidal | cell viability in time-kill assay (E. coli TOP10 cells; ten times the MIC, early exponential cells, room temperature, c.f.u. counts, triplicate): significant reduction after 30 min | MIC values against Gram-negative bacteria (Gram-negative bacteria; 24 h): 0.66 to 10.5 µM | MIC values against Gram-negative bacteria (Gram-negative bacteria; range over Gram-negative strains incl. P. aeruginosa and colistin-resistant E. coli): 1 to 16 µg/mL | MIC [4]: >64 µg/mL | MIC, Pa [5]: 1 µg/mL (≈ 0.658 µM) | reduction in c.f.u. in the thigh compared to the vehicle control (E. coli ATCC 25922; 30 mg kg^−1 subcutaneous at 2 and 8 h post infection, neutropenic ICR mice (n = 5), after 24 h): 5 log10 | viable bacteria in thigh (E. coli ATCC 25922; brevicidine 30 mg kg^−1 twice s.c., five mice, after 26 h, Mann–Whitney P < 0.01): reduced number of viable bacteria | MIC, Ec [6]: 2 µg/mL (≈ 1.32 µM) | MIC (E. cloacae NRRL-B-425): 2 µg/mL (≈ 1.32 µM) | binding to LPS (ITC) ([7]; 20 mM HEPES pH 7.0): strong binding to LPS | Kd ([7]; ITC, 50 µM LPS in 20 mM HEPES pH 7.0, 100 µM peptide, read-out: dissociation constant Kd for LPS): 6.5 µM
